# According to article PMC12731165, “Dual Modulation of Cardiac Ion Pumps: A Small-Molecule SERCA2a SUMOylation Enhancer Also Inhibits the Na^+/K^+-ATPase” (Biomedicines, 2025):
# Assays:
# [1] = target: T1, Na^+/K^+-ATPase (NKA), α1 isoform (Sus scrofa, UniProt P05024); experiment: ouabain-sensitive ATP hydrolysis ([…] ouabain), NADH-coupled assay; assay type: biochemical
# T1 construct: gene ATP1A1; native enzyme purified from porcine kidney outer medulla (α/β heterodimer); with NKA β-subunit (α/β heterodimer)
# [2] = target: T1, Na^+/K^+-ATPase (NKA), α1 isoform; experiment: ouabain-sensitive ATPase activity, NADH-coupled assay at […] nm, […] °C; assay type: biochemical
IC50 [2],Compound,"ouabain-sensitive ATP hydrolysis (500 μM ouabain), NADH-coupled assay [1]"
–,C[C@@H]1O[C@@H](O[C@H]2C[C@@H](O)[C@]3(CO)[C@H]4[C@H](O)C[C@]5(C)[C@@H](C6=CC(=O)OC6)CC[C@]5(O)[C@@H]4CC[C@]3(O)C2)[C@H](O)[C@H](O)[C@H]1O [ouabain],The enzymatic activity was verified through ouabain (OUA)-sensitive ATP hydrolysis assays prior to use in experiments.
7 ± 1 µM,"COc1ccc(-c2nnc(Nc3nc4c(OC)cccc4s3)o2)cc1 [N106, N-(4-methoxy-1,3-benzothiazol-2-yl)-5-(4-methoxyphenyl)-1,3,4-oxadiazol-2-amine]",–
